The test system of assay [1] is Retinal ganglion cells (RGCs) isolated from P0 mice. In words: P0 RGC culture: neurite outgrowth and survival. The conditions noted are these: for RGC neurite outgrowth / axonal extension: P0 RGC cultures, 3 days, beta-III-tubulin/Tuj1 immunostaining; for RGC cell survival: P0 RGCs; for effect on IGFBPL-1 induced neurite/axon growth: P0 RGC cultures treated with IGFBPL-1 plus inhibitor or neutralizing antibody. In kind it is cell-based, mouse. The text has this:
The experiments described herein were aimed to elucidate the functional role and mechanisms of IGFBPL-1 on RGC survival and axon extension in mice. The expression pattern of IGFBPL-1 in the developing retina was examined in retinas at different developmental stage, ranging from embryonic day 16 through adult, using immunohistochemistry, western blot and quantitative RT-PCR. Retinal ganglion cells were purified using magnetic beads conjugated with Thy1.2 antibody from new born mouse pups at postnatal day 0 (P0), and cultured for up to five days in the presence or absence of IGFBPL-1 and/or IGF-I proteins. RGC survival and axonal growth were evaluated after three days in culture following LIVE/DEAD® and β-III-tubulin immunostaining. Lentiviral shRNAs were used to knockdown the expression of IGFBPL-1 and/or IGF-I in culture. The functional role of IGFBPL-1 in RGC development was further evaluated in IGFBPL-1 knockout (KO) mouse. RGC morphology and number were recorded using retinal vertical sections or whole-mount preparation. The number of axons in the optic nerve head was counted under electron microscopy. Data collected from the IGFBPL-1 KO mice were compared with that obtained from age-matched wildtype C57BL/6 littermates.
RGC neurite outgrowth in the absence (FIG. 3A) and presence (FIG. 3B) of IGFBPL-1 promotes in RGC cell culture. Retinal ganglion cells (RGCs) isolated from P0 mice were cultured in the absence (control) and presence of IGFBPL-1 (IGFBPL-1) for 3 days and were immunolabeled with primary antibody against a RGC specific marker Tuj1 (red). Note that RGCs extend long neurite in IGFBPL-1-treated cultures as compared to control culture group.

Assay [2] relates to cultured RGCs derived from P10 mice. Put plainly: P10 RGC culture: axon length and survival. The format is cell-based, mouse. To be noted: for axon length / neurite outgrowth: treated 3 days. The protocol: Cells were treated with control, IGF-I, IGFBPL1 or both for 3 days and were immunostained with βIII-tubulin to reveal axons.
For assay [3], the system named is mTOR. Put plainly: P10 retina incubation, western blot of phosphorylated mTOR. The conditions noted are these: P10 retinas incubated 30 min or 6 hours at 37° C. The format is cell-based, mouse. The protocol: (§1) P10 retinas were dissected and incubated with IGF-I, IGFBPL1 and IGF-I+IGFBPL1 for 30 min or 6 hours at 37° C. Retina lysates were prepared for western blotting, using antibodies against IGF-1-mediated downstream signals, mTOR and Akt.

The test system of assay [4] is Akt. In words: P10 retina incubation, western blot of phosphorylated Akt. In kind it is cell-based, mouse. To be noted: P10 retinas incubated 30 min or 6 hours at 37° C. The method, then:
as §1

For assay [5], the target named is IGF-1 (Mus musculus, UniProt P05017). In words: Co-immunoprecipitation of IGFBPL-1 and IGF-1 (western blot). The format is binding. To be noted: mouse recombinant proteins and retina lysates. The text has this:
FIGS. 5(I) A and B and FIGS. 5 (II) A and B are western blots showing binding of IGFBP-1 with IGF-I using mouse recombinant IGFBPL-1 and IGF-1 (FIG. 5(I)) and retina lysates (FIG. 5(II)).
In general terms: In western blotting, separated proteins are transferred to a membrane and probed.

Assay [6] deals with hippocampal neurons. Put plainly: Hippocampal neuronal cultures: neurite outgrowth. In kind it is cell-based. The conditions noted are these: beta III tubulin staining. The text has this: FIG. 9B are histograms showing quantification of neurite outgrowth in control; and neurons exposed to IGFBPL-1; IGF-1; IGFBPL-1+IGF-1; IGFBPL-1+H1356; IGFBPL-1+Neut. Ab; IGFBPL-1+IGFI-1+Neut. Ab.

In assay [7] the test system is RGC axons after optic nerve crush. In words: Optic nerve regeneration in vivo after optic nerve crush. The conditions noted are these: intravitreous delivery, optic nerve crush in mice. The text has this: IGF-1 ([…]). IGFBPL-1 (n=7). IGF1+IGFBPL1 (n=6).

“Also recorded” adds a separate entry of the source.

Sequence of IGF-1 (P05017 1-118 limits assumed): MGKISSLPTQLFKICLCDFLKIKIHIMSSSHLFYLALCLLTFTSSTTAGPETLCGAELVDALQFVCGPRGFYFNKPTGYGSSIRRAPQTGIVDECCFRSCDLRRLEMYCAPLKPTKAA

As for IGF-1: Insulin Growth Factor 1 protein, in assay [1], the “RGC neurite outgrowth / axonal extension” value was “robust neurite outgrowth”; the RGC cell survival result is “promotes both neurite outgrowth and cell survival”. In assay [1] (listed as IGF-I), the “RGC neurite outgrowth / axonal extension” value is “promotes both neurite outgrowth and cell survival”. In addition, in assay [2], the RGC survival result is “affect the survival” and the “axon length / neurite outgrowth” value is recorded as “does not promote neurite outgrowth”. For the same molecule, the “phosphorylation of mTOR” value in assay [3] was “increased level of phosphorylated mTOR and Akt”. Further, the “phosphorylation of Akt” value in assay [4] is “increased level of phosphorylated mTOR and Akt”.
With `O=C(O)c1cc2cc(O)c(O)cc2c(C(=O)c2ccc(O)c(O)c2)n1` [NBI-31772, reference compound], the “effect on IGFBPL-1 induced neurite/axon growth” value was “abolishes the neurite growth effect of IGFBPL-1” in assay [1]; “abolishes the growth promoting activity of IGFBPL1” in assay [1] (listed as inhibitor of IGF-I and IGFBP binding).

B1: IGFBPL-1: insulin-like growth factor binding protein-like 1 protein; mouse recombinant IGFBPL-1 used in tests (protein)
chain: LGLRDAGRRHPECSPCQQDRCPAPSPCPAPWISARDECGCCARCLGAEGASCGGPVGSRCGPGLVCASRASGTAPEGTGLCVCAQRGAVCGSDGRSYSSICALRLRARHAPRAHHGHLHKARDGPCEFAPVVLMPPRDIHNVTGTQVFLSCEVKAVPTPVITWKKVKHSPEGTEGLEELPGDHVNIAVQVRGGPSDHETTSWILINPLRKEDEGVYHCHAANAIGEAQSHGTVTVLDLNRYKSLYSSVPGDLL
On to B1, for which, in assay [1], the “RGC neurite outgrowth / axonal extension” value is given as “significantly promoted axonal extension; also recorded: promotes RGC neurite outgrowth; also recorded: stimulates neurite outgrowth; also recorded: robust neurite outgrowth”; the RGC cell survival entry is “promotes both neurite outgrowth and cell survival”. For the same molecule, the “RGC neurite outgrowth / axonal extension” value in assay [1] (listed as IGFBPL1) was “promotes both neurite outgrowth and cell survival”. Besides, in assay [5], the “binding / interaction with IGF-1” value is “directly interacts with IGF-1”. In assay [6], the “neurite growth in hippocampal neuronal cultures” value is listed as “induced neurite growth”. Further, the “regeneration of RGC axons” value in assay [7] is recorded as “significantly promotes the regeneration of RGC axons”. For the same molecule, in assay [2], the RGC survival entry is on record as “affect the survival” and the “axon length / neurite outgrowth” value is “does not promote neurite outgrowth”. Further, the “phosphorylation of mTOR” value in assay [3] is given as “prolongs the phosphorylation”.

For the origin of these results see patent US10842849B2, “Methods for promoting neuronal outgrowth by insulin-like growth factor binding protein-like 1 (IGFBPL-1) in glaucoma or leber's optic neuropathy” (The Schepens Eye Research Institute, Inc., priority 2011, dated 2020).
